# Columns and labels:
# [1] = molecular target: T1, human recombinant HMGB1 protein (Homo sapiens, UniProt P09429); assay: SPR binding affinity against HMGB1; conditions: SPR, HMGB1 immobilized
# T1 construct: purchased Abcam
# T1 sequence (P09429 1-215): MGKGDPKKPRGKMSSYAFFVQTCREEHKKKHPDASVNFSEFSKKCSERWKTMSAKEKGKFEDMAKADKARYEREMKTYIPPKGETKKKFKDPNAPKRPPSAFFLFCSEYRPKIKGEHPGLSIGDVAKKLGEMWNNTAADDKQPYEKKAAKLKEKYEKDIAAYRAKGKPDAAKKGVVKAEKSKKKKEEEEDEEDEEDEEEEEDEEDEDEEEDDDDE
# Method: To confirm the binding affinity of Lf-GL to HMGB1, Surface Plasmon Resonance (SPR) was conducted at WoojungBSC (Korea). The Reichert SR7500DC system (Reichert technologies, NA, USA) and Scrubber2 software (Biologic software, FRA) were used, and a CMDH chip (Cat #: 13,206,066, Reichert technologies) was used for immobilization of the human recombinant HMGB1 protein (Abcam). HMGB1 protein was used as a ligand, and the analytes were HMGB1 antibody (Abcam), GL, Lf and Lf-GL conjugate. The immobilization buffer was S.A. (10 × 10^–3 M, pH 4.5), and the running buffer was PBS (pH 7.4). The flow rate of the analyte was 30 μL min^−1. The association and dissociation time were 3 min each, and measurements were conducted at room temperature. Results are expressed in response units (RU) over time.
# Fig. S5. Binding affinity against HMGB1. Surface Plasmon Resonance (SPR) was conducted at WoojungBSC (Korea). The Reichert SR7500DC system (Reichert technologies, NA, USA) and Scrubber2 software(Biologic software, FRA) were used and the CMDH chip (Cat #: 13206066, Reichert technologies) was used for immobilization of the human recombinant HMGB1 protein (Abcam). HMGB1 protein was used as ligand and analytes were HMGB1 antibody (Abcam), GL, Lf and Lf-GL conjugate. Immobilization buffer was 10 mM S.A. (pH 4.5) and running buffer was 1× PBS. The flow rate of the analyte was 30 μL min^-1. The association and dissociation time were 3 min each and conducted at room temperature. Results are expressed in response units (RU) over time.
# [2] = GBM targeted-GL by HPLC in brain homogenate; format: in vivo, orthotopic GBM model mice; conditions: Balb/c nude, mouse, brain homogenate, iv; orthotopic GBM mice, i.v. GL equivalent 50 mg kg^−1, 10 min after injection; read-out: GL concentration detected in brain homogenate
# Method: Orthotopic GBM mice model mice were used for quantification of GBM targeting efficacy. The brain tissue was homogenized in deionized water at a 33.3 w/v (%) using a FastPrep-24 5G (MP biomedical, South Korea). The GL were added to pooled brain homogenate to obtain seven-point calibration curves with a range of 10–1000 ng mL^−1. Then, homogenate (50 μL) was mixed with methanol (100 μL). […] Thereafter, supernatants (100 μL) were mixed with mobile phase solution (900 μL), then filtered with a 0.22 μm syringe filter. Samples were collected in a 2 mL HPLC vial (Screw top vial, Waters, USA) and analyzed by HPLC at 254 nm. […] Mice were sacrificed and brain tissues were collected 10 min after the GL and Lf-GL injection. The samples for quantification were also conducted using the same process as GL standard preparation.
# [3] = In vivo fluorescence tracer image (brain); parameters: species or system Balb/c mice; conditions: FITC-tagged
# Method: For the fluorescence tracer images, Balb/c mice were administered either FITC-tagged GL or FITC-tagged Lf-GL at a GL equivalent concentration of 50 mg kg^−1 body weight via tail vein injection. After 1, 10, 30, and 60 min, the experimental mice were sacrificed, and the organs were extracted. The fluorescence signals of FITC-tagged GL or FITC-tagged Lf-GL in organs were imaged using an in vivo imaging system (FOBI, CELLGENTEK, South Korea). The exposure time was fixed to 200 s for analyzing fluorescent signals from tissues. The quantified fluorescence signal of the brain at each time point was measured in terms of intensity units (IU, Intensity Min^−1 Gain^−1).
# Fig. S15. Fluorescence tracer images of intravenously injected GL and Lf-GL. Balb/c mice were administered either FITC-tagged GL or FITC-tagged Lf-GL at a GL equivalent concentration of 50 mg kg^-1 body weight via tail vein injection. The fluorescence signals of FITC-tagged GL or FITC-tagged Lf-GL in organs were imaged using an in vivo imaging system (FOBI, CELLGENTEK, South Korea). The exposure time was fixed to 200 sec for analyzing fluorescent signals from tissues. The quantified fluorescence signal of brain at each time point was measured with Intensity Unit (IU, Intensity Min^-1 Gain^-1).
# [4] = test system: U87MG human glioma cell line; assay: Cell viability test (CCK-8) in U87MG; format: cell-based; conditions: 50 μM GL equivalent, after 48 h treatment
# Method: Cell viability was determined using a cell counting kit-8 (CCK-8). U87MG and HUVECs (seeding density: 0.75 × 10^4 cells per well) in 96-well culture plates were treated with GL, Lf, or Lf-GL (25 to 200 × 10^–6 M of GL equivalent concentration) and were incubated for different periods of time (24, 48, and 72 h). After washing with PBS, they were treated with a cell culture medium containing a CCK-8 assay kit (Abbkine) and were incubated at 37 °C and 5% CO2 for 2 h. Then, absorbance was measured at 450 nm in a micro-plate reader (VLBL00D0, Thermo Fisher Scientific). Results were quantified using Sigma Plot (Systat Software, USA). To determine the effect of extracellular HMGB1 in GBM and endothelial cell proliferation, U87MG and HUVECs were seeded in 96-well culture plates (seeding density: 0.75 × 10^4 cells per well) and GL, Lf, or Lf-GL (50 × 10^–6 M GL equivalent concentration) were added to cells with or without HMGB1 protein (U87MG: 0.1 μg mL^−1, and HUVEC: 1 μg mL^−1). Cells were incubated for different periods of time (24, 48, and 72 h).
# [5] = In vivo pharmacokinetics study
# [6] = Balb/c, mouse, plasma, iv, 50 mg/kg
smiles,measurement,setting,value
"CC1(C)[C@@H](O[C@H]2O[C@H](C(=O)O)[C@@H](O)[C@H](O)[C@H]2O[C@@H]2O[C@H](C(=O)O)[C@@H](O)[C@H](O)[C@H]2O)CC[C@]2(C)[C@H]3C(=O)C=C4[C@@H]5C[C@@](C)(C(=O)O)CC[C@]5(C)CC[C@@]4(C)[C@]3(C)CC[C@@H]12 [GL, Glycyrrhizin]","Kd, dissociation rate constant","[1]; PBS pH 7.4, room temperature",0.00283 ± 3e-05 s⁻¹
same,kon,"[1]; PBS pH 7.4, room temperature, read-out: Ka, association rate constant",5.3 ± 0.1 M⁻¹ s⁻¹
same,Kd,"[1]; read-out: KD, equilibrium dissociation constant (KD = Kd Ka^−1)",540 ± 20 µM
same,concentration at 10 min,[2],9800 ± 2300 ng/mL
same,Time up to which fluorescence signal was detected in the brain,[3]; i.v. GL equivalent 50 mg kg^−1,≤ 10 min
same,Fluorescence intensity in the brain,"[3]; i.v. GL equivalent 50 mg kg^−1, 10 min after injection","7,914 I.U."
same,"Number of cells, % of the original count",[4],93.4 ± 4.8%
same,AUC(0-t),[5]; [6],102 µg·h/mL
same,Cmax,[5]; [6],254 ± 117 µg/mL
same,MRT,[5]; [6],4.6 min
same,Tmax,[5]; [6],1 min
same,half-life,"[5]; Balb/c, mouse, plasma, iv, 50 mg/kg, T1/2, elimination half-life, mice, GL equivalent 50 mg kg^−1, plasma",~3.8 min
same,Time after administration until cleared from / remaining in circulation,"[5]; mice, i.v., GL equivalent 50 mg kg^−1",150 min

# Source: paper PMC10200060, “Inhibition of DAMP actions in the tumoral microenvironment using lactoferrin-glycyrrhizin conjugate for glioblastoma therapy” (Biomaterials Research, 2023)
